Patent US20090214670A1, “Rhcc peptide and uses thereof” (Optovent AB, priority 2005, published 2009)

Key:
[1] = tested on: RHCC; assay: localisation by UV-Vis spectroscopy (solvatochromic effect); type: binding, Staphylothermus marinus; conditions: tris-buffer solution with RHCC compared with water, methanol, water/methanol 50/50; FIG. 1
Method: The location of a drug inside the cavities can be detected by techniques sensitive to the local microscopic environment of the molecule, e.g. the drug. For example the absorption of visible light (UV-Vis spectroscopy—solvatochromic effect) can be used to probe the local environment of e.g. […] (FIG. 1). The position of the absorption peak of […] is measured in water (FIG. 1—Plot A), in methanol (FIG. 1, Plot C), water/methanol (50/50) (FIG. 1—Plot B) and in a mixture with the peptide (FIG. 1—Plot E).

[2] = tested on: RHCC; assay: filtering experiment: excess metal complex removed via size exclusion filters, absorption spectra; type: binding, Staphylothermus marinus; conditions: mixed with excess metal complex, stirred at least 1 hour, solvent replaced via size exclusion filters; FIG. 2 and 3
Method: After leaving the mixed solution stirred for at least 1 hour, the solvent containing RHCC, the metal complex and the buffer or any other supporting salt, the solvent together with any excess metal complex and salt is replaced via size exclusion filters by a solvent NOT containing any metal complex. The result of such an experiment is plotted in FIG. 2. […] In combination with the x-ray structures a location of HgI4^2− inside the cavities in solution can be concluded. […] According to the crystal structure, incorporation into the cavities of RHCC can be concluded for cisplatin.

[3] = tested on: RHCC peptide; assay: NMR and UV-Vis absorption experiments on incorporation of metal ions in solution; type: binding, Staphylothermus marinus
From the text: For the addition of electrons according to reaction (4), electrochemical or photoelectrochemical reduction (with e.g. [Ru(bpy)3]^2+) may be used, although the simple addition of a chemical reducing agent (e.g. NaBH4) is also possible.

[4] = tested on: IL-6-dependent BAF/3 cell line; assay: biological activity on the IL-6-dependent BAF/3 cell line; type: cell-based
From the text: The calculated molecular mass of RHCC-IL-6 monomer is 28.3 kDa. […] The corresponding value for the tetramer is […].

[I][Hg-2]([I])([I])[I] [HgI4^2−]
local environment of the complex when mixed with the peptide (absorption peak position) [1]: resides in a hydrophobic environment | interaction of metal complex with RHCC after filtering off excess complex [2]: strong enough to prevent HgI4^2− from being filtered from the solution | incorporation of the metal ion into RHCC peptide in solution [3]: incorporates the metal ion in solution

[Cl][Pt-2]([Cl])([Cl])[Cl] [[PtCl4]^−]
incorporation of the metal ion into RHCC peptide in solution [3]: incorporates the metal ion in solution

N.N.[Cl][Pt][Cl] [cisplatin]
interaction of metal complex with RHCC after filtering off excess complex [2]: strong interaction

RHCC-IL-6 fusion molecule: fusion protein: histidine tag, human interleukin-6 sequence, GS linker, RHCC sequence; forms a tetramer
biological activity on IL-6-dependent BAF/3 cell line [4]: full biological activity
